Measured values reported in US10822376B2, “Biologically active peptides” (Baxalta Incorporated, priority 2008, dated 2020).
Converted amounts (≈) assume the structure as drawn. Like-named read-outs stand apart in the source and are kept apart here. Where a SMILES comes first, the peptide text is derived from it. [ ]: non-standard residue; d: D form.

Key:
[1] = test system: Factor X deficient human plasma; experiment: DDPTGA (reagent B) in FX depleted plasma; settings: compounds at 50 μM and 80, 90 or 100 μM
Protocol: (§1) The Defined Dual-Pathway Thrombin Generation Assay is performed as described below, using a commercial test kit (Technothrombin TGA, Technoclone GmbH, Vienna, Austria). […] USA) are incubated four minutes at 37° C. Preferably, Reagent C high is used. Thrombin generation is started by the addition of 40 μl of one of several types of human plasma (37° C.). […] By deviating the original fluorescence data the amount of generated thrombin is calculated from a standard curve constructed using a concentration range of thrombin.
(§2) The in vitro thrombin generation assay based on the cleavage of Z-GGR-AMC to release the fluorophore AMC, described in the specific description, i.e. the Defined Dual-Pathway Thrombin Generation Assay was used to characterise the effect of the compounds in several depleted human plasmas. […] 10 μl peptide dilution, 40 μl TGA substrate and 40 μl plasma were used as described in the specific description.
(§3) The plasmas used in the experiments were fresh frozen and were deficient in Factor V, Factor VII/VIIa, Factor VIII, Factor X or Factor XI (George King Bio-Medical, Inc.). Residual coagulation factor levels of deficient plasmas were specified as less than 1%.
(§4) For each depleted plasma used in the experiments, compounds were tested at two concentrations, namely 50 μM and 80, 90 or 100 μM. A negative control was used, in which no test compound was included.

FVIII deficient plasma = experiment: Defined Dual-Pathway Thrombin Generation Assay (DDPTGA, reagent C high), FVIII deficient plasma; type: biochemical, human; settings: for Peak IIa FVIII EU / Peak Time FVIII EU: FVIII deficient plasma
[2] = test system: Factor VIII deficient human plasma; experiment: DDPTGA (reagent B) in FVIII depleted plasma; type: biochemical; settings: compounds at 50 μM and 80, 90 or 100 μM; also: key: '+' means stimulates; '−' means does not stimulate
From the text: Preferably, Reagent C high is used.

[3] = test system: human FVIII inhibited plasma; experiment: Defined Intrinsic Thrombin Generation Assay (DITGA, triggered by FXIa and phospholipids); type: biochemical; settings: for Activity in the Defined Intrinsic Thrombin Generation Assay: summary
[4] = test system: Factor V deficient human plasma; experiment: DDPTGA (reagent B) in FV depleted plasma; settings: compounds at 50 μM and 80, 90 or 100 μM
Protocol: as §1, §2, §3, §4

physchem = settings: for solubility kinetic: pH 7.4
Protocol: Aqueous solubility is measured in PBS at pH 7.4 either in an assay provided by Cerep (France, Catalog ref. 900-11a) or according to the following protocol. The aim of this procedure is to determine the solubility of a drug candidate (analyte) in a buffer, by estimating the saturation concentration of the candidate in the buffer using HPLC. A known concentration of the candidate in an organic solvent is used as a standard. A stock solution of the test compound in DMSO must be prepared as the initial step. […] DMSO stock-solutions are diluted to a final concentration of 50 μM with DMSO (100% reference-solution) and buffer (test-solution) to provide a minimum volume of 500 μL of each. Both solutions are shaken at 25° C. at 950 rpm in an Eppendorf “thermomixer comfort” for at least 60 min. The suspension is centrifuged at 22 330 g for at least two min and 100 μL of the supernatant is transferred into polypropylene-inserts placed in glass vials and closed by snap-ring caps. Alternatively the solutions can be prepared in microtiter plates with half of the previously described starting solvent volume. For the determination of the solubility all samples are analyzed by HPLC in triplicate. Injection volume is at least 10 μL. The obtained data are analyzed by “Chemstation-software” (Agilent, Waldbronn, Germany). The peaks from the analyses of the organic solutions are integrated and the arithmetic mean is reported as “AUC 1” (reference area of known amount injected at the HPLC). […] The ratio of the mean “AUC 2” and “AUC 1” is calculated and thus the percentage of the dissolved amount of compound in buffer is obtained and solubility can be reported in μM.

FVIII inhibited plasma = experiment: Defined Dual-Pathway Thrombin Generation Assay (DDPTGA, reagent C high), FVIII inhibited plasma; type: biochemical, human; settings: for Peak IIa FEIBA EU / Peak IIa FVIIa EU / Peak Time FEIBA EU / Peak Time FVIIa EU: FVIII inhibited plasma; for Activity in the Defined Dual-Pathway Thrombin Generation Assay: summary, FVIII inhibited or deficient plasma
[5] = test system: Factor VII/VIIa deficient human plasma; experiment: DDPTGA (reagent B) in FVII depleted plasma; settings: compounds at 50 μM and 80, 90 or 100 μM
Protocol: as §1, §2, §3, §4

[6] = test system: Factor XI deficient human plasma; experiment: DDPTGA (reagent B) in FXI depleted plasma; settings: compounds at 50 μM and 80, 90 or 100 μM
Protocol: as §1, §2, §3, §4

Acute toxicology in mice = type: in vivo, mouse; settings: C57BL/6, mouse, in vivo, 60 minutes following administration, read-out: Max dose within toxicity category: No detected toxicity
Protocol: Toxicology studies involved monitoring of attitude changes due to toxic effects immediately after application and twice daily; monitoring of body weight; histopathology of brain, heart, kidney, liver, lung. Experiments were performed in C57131/6 mice.
C57BI/6 mice weighing 18-20 g were administered with compounds in a suitable vehicle i.v. in the tail vein or i.p. or s.c at 10 ml/kg. Quantities of the compounds administered were in the range of 0.075 to 125 mg/kg (i.v.), 15-125 mg/kg (i.p.) and 125 mg/kg (s.c.). There were four mice per group. Attitude changes due to toxic effects were monitored immediately after administration of the compound and for 60 minutes thereafter. Body weight was monitored for five days after administration. At day 5 after administration, mice were culled and autopsy performed. Brain, heart, kidney, liver, lung and spleen were biopsied.
In the above table, the maximum dose tested giving rise to no detected toxicity, some toxicity or severe toxicity over the period of 60 minutes following administration is reported. “No detected toxicity” indicates no acute toxic observations.

in vitro = settings: human, plasma
Protocol: Half-life of compounds in human or mouse plasma, or percentage of compound remaining after an incubation in human or mouse plasma, is determined as follows. In the experimental procedure, test compound concentrations are 5 μM, prepared from test compound stock solutions of 10 mM in DMSO. Propantheline is used as a standard. […] All of the samples are incubated in a water bath at 37° C. […] After a chosen duration of incubation (generally at t=60 min) each sample is mixed with a further 500 μl acetonitrile. The samples are mixed on a vortex mixer for 30 s and placed on ice for 10 min and collected for centrifugation. Samples are centrifuged at 20 000 g for 10 min at 4° C. 500 μl supernatant is transferred into a new 1.5 ml Eppendorf tube and an equal volume of acetonitrile is added. The sample is mixed again for 30 s using a vortex mixer. After a second centrifugation step (20 000 g, 10 min, 4° C.) 250 μl of the supernatant is transferred into HPLC glass vials for HPLC-MS analysis. Conditions for performing HPLC are as follows: Injection-volume is set to 20 μl. Temperature is set to 25° C. A linear gradient from 95:5 to 5:95 water:acetonitrile both containing 0:05% trifluoroacetic acid (TFA) (v/v) is applied at a flow rate of 0.3 ml/min for 10 min. The PDA-detector is scanning from 210-400 nm.

Compound | Stimulation of thrombin generation [1] | Stimulation of thrombin generation [2] | Thrombin peak time given as FEIBA equivalent activity ([3]; peptide 6.25 μM) | Thrombin peak time given as FEIBA equivalent activity ([3]; peptide 12.5 μM) | Thrombin peak time given as FEIBA equivalent activity ([3]; peptide 25 μM) | Thrombin peak time given as FEIBA equivalent activity ([3]; peptide 50 μM) | Thrombin peak time given as FEIBA equivalent activity ([3]; peptide 100 μM) | Activity in the Defined Intrinsic Thrombin Generation Assay [3] | Stimulation of thrombin generation [4] | solubility kinetic (physchem) | solubility (physchem; pH 7.4, Aqueous solubility) | Stimulation of thrombin generation [5] | Stimulation of thrombin generation [6] | NOAEL at 1 h (Acute toxicology in mice; ip) | NOAEL at 1 h (Acute toxicology in mice; iv) | remaining at 0.5 h, 5 μM (in vitro) | Peak IIa FVIII EU (FVIII deficient plasma; peptide 50 μM) | Peak Time FVIII EU (FVIII deficient plasma; peptide 50 μM) | Peak IIa FEIBA EU (FVIII inhibited plasma; peptide 50 μM) | Peak IIa FVIIa EU (FVIII inhibited plasma; peptide 50 μM) | further results
CC[C@@H](C)[C@@H](NC(=O)[C@@H](CS)NC(C)=O)C(=O)N[C@H](CCSC)C(=O)N[C@H](Cc1ccccc1)C(=O)N[C@H](Cc1c[nH]c2ccccc12)C(=O)N[C@H](Cc1ccc(O)cc1)C(=O)N[C@H](CC(=O)O)C(=O)N[C@H](CCC(=O)O)C(=O)N[C@H](Cc1ccc(O)cc1)C(=O)N[C@H](CCC(=O)O)C(N)=O [Peptide B03, Ac-cimfwydeye-NH2] (Ac-[dC][dI][dM][dF][dW][dY][dD][dE][dY][dE]-NH2) | + | + | 454 mU/ml | 602 mU/ml | 738 mU/ml | 1030 mU/ml | 1394 mU/ml | possess activity | − | 114 µM (≈ 164 µg/mL) | 114 µM (≈ 164 µg/mL) | + | + | 15 mg/kg | 1.5 mg/kg |  |  |  |  |  | Effect on both peak time and peak IIa of thrombin generation (FVIII deficient plasma; DDPTGA, comment on Table 10): positively affected; Peak IIa FVIII EU (FVIII deficient plasma; peptide 40 μM): 4.8 mU/ml; Peak Time FVIII EU (FVIII deficient plasma; peptide 40 μM): 8.7 mU/ml; Peak IIa FVIII EU (FVIII deficient plasma; peptide 100 μM): 5.3 mU/ml; Peak Time FVIII EU (FVIII deficient plasma; peptide 100 μM): 7.5 mU/ml; Peak IIa FEIBA EU (FVIII inhibited plasma; peptide 40 μM): 7.2 mU/ml; Peak IIa FVIIa EU (FVIII inhibited plasma; peptide 40 μM): 0.2 nM; Peak Time FEIBA EU (FVIII inhibited plasma; peptide 40 μM): BLS (BLS = below lowest standard.); Peak Time FVIIa EU (FVIII inhibited plasma; peptide 40 μM): BLS (BLS = below lowest standard.); Peak IIa FEIBA EU (FVIII inhibited plasma; peptide 100 μM): 12.3 mU/ml; Peak IIa FVIIa EU (FVIII inhibited plasma; peptide 100 μM): 0.6 nM; Peak Time FEIBA EU (FVIII inhibited plasma; peptide 100 μM): BLS (BLS = below lowest standard.); Peak Time FVIIa EU (FVIII inhibited plasma; peptide 100 μM): BLS (BLS = below lowest standard.); Activity in the Defined Dual-Pathway Thrombin Generation Assay (FVIII inhibited plasma): possess activity
Ac-PMKFDVWDLYFEIVW-NH2 [Peptide A02] | + | + | 577 mU/ml | 674 mU/ml | 780 mU/ml | 1018 mU/ml | 1305 mU/ml | possess activity | − | 35 µM | 35 µM | + | + | 25 mg/kg | 25 mg/kg | 84% | BLS (BLS = below lowest standard.) | BLS (BLS = below lowest standard.) | BLS (BLS = below lowest standard.) | BLS (BLS = below lowest standard.) | solubility (physchem; pH 7.4, Solubility in PBS pH 7.4): ≥ 25 µM; Peak Time FEIBA EU (FVIII inhibited plasma; peptide 50 μM): 10.2 mU/ml; Peak Time FVIIa EU (FVIII inhibited plasma; peptide 50 μM): 0.4 nM; Activity in the Defined Dual-Pathway Thrombin Generation Assay (FVIII inhibited plasma): possess activity
Ac-RMKFDVWDLYFEIVW-NH2 [Peptide A01] | − | + | 97 mU/ml | 138 mU/ml | 160 mU/ml | 227 mU/ml | 338 mU/ml | possess activity | − | 9 µM | 9 µM | + | + | 20 mg/kg | 20 mg/kg | 58% | BLS (BLS = below lowest standard.) | BLS (BLS = below lowest standard.) | BLS (BLS = below lowest standard.) | BLS (BLS = below lowest standard.) | Peak IIa FVIII EU (FVIII deficient plasma; peptide 90 μM): BLS (BLS = below lowest standard.); Peak Time FVIII EU (FVIII deficient plasma; peptide 90 μM): BLS (BLS = below lowest standard.); Peak Time FEIBA EU (FVIII inhibited plasma; peptide 50 μM): BLS (BLS = below lowest standard.); Peak Time FVIIa EU (FVIII inhibited plasma; peptide 50 μM): BLS (BLS = below lowest standard.); Peak IIa FEIBA EU (FVIII inhibited plasma; peptide 90 μM): BLS (BLS = below lowest standard.); Peak IIa FVIIa EU (FVIII inhibited plasma; peptide 90 μM): BLS (BLS = below lowest standard.); Peak Time FEIBA EU (FVIII inhibited plasma; peptide 90 μM): BLS (BLS = below lowest standard.); Peak Time FVIIa EU (FVIII inhibited plasma; peptide 90 μM): BLS (BLS = below lowest standard.)
Ac-WDLYFEIVW-NH2 [Peptide A05] | + | + | 390 mU/ml | 487 mU/ml | 562 mU/ml | 631 mU/ml | 816 mU/ml | possess activity | − | 6 µM | 6 µM | + | + | 15 mg/kg |  | 93% | BLS (BLS = below lowest standard.) | BLS (BLS = below lowest standard.) | BLS (BLS = below lowest standard.) | BLS (BLS = below lowest standard.) | Peak IIa FVIII EU (FVIII deficient plasma; peptide 100 μM): BLS (BLS = below lowest standard.); Peak Time FVIII EU (FVIII deficient plasma; peptide 100 μM): BLS (BLS = below lowest standard.); Peak Time FEIBA EU (FVIII inhibited plasma; peptide 50 μM): BLS (BLS = below lowest standard.); Peak Time FVIIa EU (FVIII inhibited plasma; peptide 50 μM): BLS (BLS = below lowest standard.); Peak IIa FEIBA EU (FVIII inhibited plasma; peptide 100 μM): BLS (BLS = below lowest standard.); Peak IIa FVIIa EU (FVIII inhibited plasma; peptide 100 μM): BLS (BLS = below lowest standard.); Peak Time FEIBA EU (FVIII inhibited plasma; peptide 100 μM): BLS (BLS = below lowest standard.); Peak Time FVIIa EU (FVIII inhibited plasma; peptide 100 μM): BLS (BLS = below lowest standard.)
